Reference: publication PMC11162469, “Discovery of RXFP2 genetic association in resistant hypertensive men and RXFP2 antagonists for the treatment of resistant hypertension” (Scientific Reports, 2024)
Bridge positions count the residues as written; N and C are the ends. Ends that are not written are not given here. I, II: the chains in the order shown.

How the values were obtained:
rat RXFP2 [1] = test: INSL3-stimulated cAMP assay in HEK293 with BacMam expression of rat RXFP2; format: cell-based; settings: read-out: EC50 cAMP in HEK293 transiently expressing rat RXFP2
Experimental: Active compounds (RXFP2 HTRF IC50 < 100 µM, RXFP2 FLIPR IC50 < 100 µM) were profiled to determine selectivity and rat cross-reactivity (Fig. 2). The RXFP1 assay detected compound inhibition of relaxin EC80-induced cAMP in HEK293 transiently expressing human RXFP1 (hRXFP1). […] Only 7 of 104 compounds had rRXFP2 IC50 < 100 µM, indicating poorly conserved receptor binding sites across species. RXFP2 blockers were organized into two potential series, based on structural similarity. […] BRL-37274 and GSK618069 were identified as selective RXFP2 antagonists. […] Ultimately, poor chemical properties and low ligand efficiency limited further compound optimization (Table 1, Supplementary Figs. S6, S7).
The nucleotide sequences used in Bacmam transfections encoded RXFP protein as described in UniProt (Q9HBX9. RXFP1_human; Q8WXD0. RXFP2_human; Q5ECL0. RXFP2_rat). […]
(§1) cAMP generation was measured using the Lance Ultra cAMP kit as per manufacturer’s instructions (Perkin Elmer) in HEK293 cells transduced in tissue culture flasks with RXFP BacMam, incubated at 37 °C/5% CO2 for 18 h before assay. […] After a 30 min incubation, 4 µL of Lance detection reagent was added and the FRET signal read 1 h later using a TR-FRET-capable plate reader, with excitation at 340 nm and emission at 615 nm and 665 nm. […]

RXFP2 [2] = molecular target: T1, RXFP2 (Homo sapiens, UniProt Q8WXD0); test: cell-based
rat RXFP2 [3] = molecular target: T2, rat RXFP2 (Rattus norvegicus, UniProt F7EMH8); test: INSL3-stimulated CYP11B1 mRNA expression in H295R stably expressing rat RXFP2; format: cell-based; design: expressed in transfected cells; settings: 48 h of treatment; read-out: EC50 on CYP11B1 mRNA expression, H295R-rRXFP2
Experimental: (§2) RXFP2 antagonists were added to H295R-rRXFP2 before addition of INSL3 EC80 (3.5 nM) for 48 h, whereupon the cells and supernatants were collected. CYP11B1 and CYP11B2 mRNA were determined by qPCR and the RXFP2 blocker potencies were calculated (Fig. 5a). Fifteen antibodies have IC50s < 50 nM, and three of the top antibodies (1F2, 4G6, and 2D4) were selected for evaluation in steroid hormone secretion assays by ELISA.
(§3) Data entered as XY table, with x = [Inhibitor] (nM) and y = CYP11B2 or CYP11B1 fold change.

rat RXFP2 [4] = molecular target: T2, rat RXFP2; test: INSL3-stimulated CYP11B2 mRNA expression in H295R stably expressing rat RXFP2; format: cell-based; design: expressed in transfected cells; settings: 48 h of treatment; read-out: EC50 on CYP11B2 mRNA expression, H295R-rRXFP2
Experimental: as §2, §3

rat RXFP2 [5] = molecular target: T2, rat RXFP2; test: INSL3-stimulated cAMP assay in HEK293 stably expressing rat RXFP2;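 note: cAMP measured with an HitHunter kit in 384-well plates, 11-point dose–response curves up to 1 µM antibody, four-parameter variable-slope fit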
RXFP2 [6] = molecular target: T1, RXFP2; test: INSL3-stimulated cAMP assay in HEK293 stably expressing human RXFP2
RXFP2 [7] = molecular target: T1, RXFP2; test: INSL3-stimulated cAMP assay in HEK293 with BacMam expression of human RXFP2; format: cell-based; design: expressed in transfected cells; host or cells: HEK293-MSRII, BacMam transduction (MOI 5); settings: HTRF primary assay, read-out: EC50 cAMP in HEK293 expressing human RXFP2
Description: A high throughput screen (HTS) assay was developed using HEK293 cells transduced with RXFP2 via baculovirus-mediated gene transfer (BacMam)[40]. […] The HTS campaign identified 104 hits across 8 clusters showing blockade of hRXFP2.
The nucleotide sequences used in Bacmam transfections encoded RXFP protein as described in UniProt (Q9HBX9. RXFP1_human; Q8WXD0. RXFP2_human; Q5ECL0. RXFP2_rat). HEK293- MSRII cells were maintained in DMEM‐F12, supplemented with 10% fetal bovine serum (FBS) and L-glutamine at 37 °C/5% CO2. HEK293 stably expressing Gα16 were maintained in DMEM‐F12, supplemented with 10% FBS, L-glutamine and selection antibiotics at 37 °C/5% CO2. Transient receptor expression was achieved using modified baculoviruses (BacMam), generated according to manufacturer’s instructions using the Bac-to-Bac system (Invitrogen, UK) encoding hRXFP1, hRXFP2 or rRXFP2. Cells were transduced with RXFP-BacMam at an optimized multiplicity of infection (MOI) of 5.
as §1

T2 sequence (F7EMH8 20-737): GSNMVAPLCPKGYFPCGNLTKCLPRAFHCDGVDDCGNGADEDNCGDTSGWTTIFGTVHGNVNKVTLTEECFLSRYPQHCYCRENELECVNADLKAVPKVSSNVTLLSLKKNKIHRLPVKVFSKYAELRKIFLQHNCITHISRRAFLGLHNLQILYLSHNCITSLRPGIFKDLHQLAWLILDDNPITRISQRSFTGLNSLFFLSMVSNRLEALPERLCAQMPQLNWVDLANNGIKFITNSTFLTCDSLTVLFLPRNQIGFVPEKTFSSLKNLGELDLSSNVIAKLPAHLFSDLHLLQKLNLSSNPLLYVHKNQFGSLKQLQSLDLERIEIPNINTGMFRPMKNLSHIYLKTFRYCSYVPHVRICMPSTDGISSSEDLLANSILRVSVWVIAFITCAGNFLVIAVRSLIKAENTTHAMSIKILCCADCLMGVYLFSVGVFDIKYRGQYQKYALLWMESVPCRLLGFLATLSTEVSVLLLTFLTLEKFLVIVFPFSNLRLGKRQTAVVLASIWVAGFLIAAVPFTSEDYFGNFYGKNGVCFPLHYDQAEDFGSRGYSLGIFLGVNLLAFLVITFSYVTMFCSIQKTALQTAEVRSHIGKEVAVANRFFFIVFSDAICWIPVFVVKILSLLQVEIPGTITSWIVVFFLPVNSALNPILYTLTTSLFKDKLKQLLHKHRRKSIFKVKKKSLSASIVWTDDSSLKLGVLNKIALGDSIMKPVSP
T1 sequence (Q8WXD0 whole entry): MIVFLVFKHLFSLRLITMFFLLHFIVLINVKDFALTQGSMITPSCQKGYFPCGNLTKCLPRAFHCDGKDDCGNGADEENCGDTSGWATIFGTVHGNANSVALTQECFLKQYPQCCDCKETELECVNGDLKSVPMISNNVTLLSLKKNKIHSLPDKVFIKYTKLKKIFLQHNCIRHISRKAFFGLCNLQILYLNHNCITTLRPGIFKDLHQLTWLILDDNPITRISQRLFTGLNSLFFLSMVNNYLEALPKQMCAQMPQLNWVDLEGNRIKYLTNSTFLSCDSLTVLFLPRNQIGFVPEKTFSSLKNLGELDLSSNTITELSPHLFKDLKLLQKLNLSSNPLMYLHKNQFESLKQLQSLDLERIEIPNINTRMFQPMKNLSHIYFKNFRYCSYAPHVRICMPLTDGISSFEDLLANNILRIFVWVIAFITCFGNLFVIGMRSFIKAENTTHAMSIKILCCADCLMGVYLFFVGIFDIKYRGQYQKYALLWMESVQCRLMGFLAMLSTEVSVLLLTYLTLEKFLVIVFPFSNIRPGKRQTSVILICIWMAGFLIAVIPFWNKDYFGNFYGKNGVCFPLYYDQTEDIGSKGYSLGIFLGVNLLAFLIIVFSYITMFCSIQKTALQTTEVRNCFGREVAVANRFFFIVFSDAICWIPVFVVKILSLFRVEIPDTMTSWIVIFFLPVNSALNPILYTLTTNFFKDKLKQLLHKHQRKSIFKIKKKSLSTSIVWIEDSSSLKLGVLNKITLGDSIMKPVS

I: PTPEMREKLCGHHFVRALVRVCGGPRWSTEA / II: AAATNPARYCCLSGCTQQDLLTLCPY (disulfide I:10-II:11, I:22-II:24, II:10-II:15) [INSL3, Insulin-like peptide 3]
EC50 (rat RXFP2 [1]): 13 nM
EC50 (RXFP2 [2]): 13.4 nM
EC50 (rat RXFP2 [3]): 0.3 nM
EC50 (rat RXFP2 [4]): 0.4 nM
EC50 (rat RXFP2 [5]): 8.4 nM
EC50 (RXFP2 [6]): 2.9 nM
EC50 (RXFP2 [7]): 0.048 nM
